Measurements published in patent US20170296566A9, “METHODS AND COMPOSITIONS FOR TREATING AND/OR PREVENTING MUCOSITIS” (GLYCOMIMETICS, INC., priority 2013, published 2017).

Target: T1, E-selectin (Homo sapiens, UniProt P16581)
T1 construct: fused on or other part: Immunoglobulin (Ig) portion fused to E-selectin as a handle for immobilisation
T1 sequence (P16581 22-175 limits assumed): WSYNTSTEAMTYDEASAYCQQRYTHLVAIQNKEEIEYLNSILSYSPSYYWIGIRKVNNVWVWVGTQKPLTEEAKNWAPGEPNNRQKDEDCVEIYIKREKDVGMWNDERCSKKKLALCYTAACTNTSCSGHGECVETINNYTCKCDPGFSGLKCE
Test: E-selectin competitive binding assay (inhibition of sLe^a binding to immobilized E-selectin/Ig chimera)
Conditions: biotinylated sLe^a polyacrylamide with streptavidin/HRP, TMB, 450 nm, read-out: IC50 (μM), E-Selectin Antagonist Activity
Procedure: The inhibition assay to screen for and characterize glycomimetic antagonists of E-selectin is a competitive binding assay, which allows the determination of IC50 values. E-selectin/Ig chimera was immobilized in 96 well microtiter plates by incubation at 37° C. for 2 hours. To reduce nonspecific binding, bovine serum albumin was added to each well and incubated at room temperature for 2 hours. The plate was washed and serial dilutions of the test compounds were added to the wells in the presence of conjugates of biotinylated, sLe^a polyacrylamide with streptavidin/horseradish peroxidase and incubated for 2 hours at room temperature.
To determine the amount of sLe^a bound to immobilized E-selectin after washing, the peroxidase substrate, 3,3′,5,5′ tetramethylbenzidine (TMB) was added. After 3 minutes, the enzyme reaction was stopped by the addition of H3PO4, and the absorbance of light at a wavelength of 450 nm was determined.
In addition to reporting the absolute IC50 value as measured above, relative IC50 values (rIC50) are determined by a ratio of the IC50 measured for the test compound to that of an internal control (reference) stated for each assay.

Q: How did the IC50 turn out when `CCC1CC(C(=O)OC)C[C@@H](O[C@@H]2O[C@@H](CO)[C@H](O)C(O[C@@H](CC3CCCCC3)C(=O)O)C2NC(C)=O)[C@@H]1OC1O[C@@H](C)[C@H](O)C(O)[C@@H]1O` (some centres unmarked) [Compound 22] was run?
A: < 4 µM

Q: `CCC1CC(C(=O)OC)C[C@@H](O[C@@H]2OC(CO)[C@H](O)C(O[C@@H](CC3CCCCC3)C(=O)O)C2NC(=O)C(F)(F)F)C1OC1O[C@@H](C)C(O)C(O)[C@@H]1O` (some centres unmarked) [Compound 27] was tested. Which IC50 did it give?
A: < 4 µM

Q: For `CCC1CC(C(=O)NCCNC(=O)c2nc(C)cs2)C[C@@H](O[C@@H]2OC(CO)[C@H](O)C(O[C@@H](CC3CCCCC3)C(=O)O)C2NC(C)=O)C1OC1O[C@@H](C)C(O)C(O)[C@@H]1O` (some centres unmarked) [Compound 28], which IC50 is on record?
A: < 4 µM

Q: With `CCC1CC(C(=O)NCCNC(=O)Cc2cc(=O)oc3cc(O)ccc23)C[C@@H](O[C@@H]2OC(CO)[C@H](O)C(O[C@@H](CC3CCCCC3)C(=O)O)C2NC(C)=O)C1OC1O[C@@H](C)C(O)C(O)[C@@H]1O` (some centres unmarked) [Compound 29] as the compound, how does the IC50 read?
A: < 4 µM

Q: `CCC1CC(C(=O)NCCNC(=O)CCOCCOCCOCCOCCOCCOCCOCCOCCOCCOCCOCCOC)CC(OC2OC(CO)C(O)C(OC(CC3CCCCC3)C(=O)N(C)C)C2NC(C)=O)C1OC1OC(C)C(O)C(O)C1O` (centres unmarked) [Compound 45] was tested. Which IC50 did it give?
A: < 4 µM
